Values quoted from earlier work, collected in patent US11324965B2, “Non-invasive energy upconversion methods and systems” (IMMUNOLIGHT, LLC., priority 2009, dated 2022).
Where two headings read alike, the source gives them in different places. Square brackets hold non-standard residues; d marks the D form. Peptide text beside a SMILES is read from it. Bpa = N[CH](Cc1ccc(C(=O)c2ccccc2)cc1)C(=O)O; 2Nal = N[CH](Cc1ccc2ccccc2c1)C(=O)O; Aib = CC(C)(N)C(=O)O

Columns and labels:
[1] = for KSSET (Average): average over λex 224, 266, 280 nm
tumors = conditions: in vivo
[2] = orange juice, high UV exposure of 100 mJ/cm^2

Row | duration of skin photosensitivity (in vivo) | duration of skin photosensitivity (clinical use) [h] | degradation of Vitamin C [2] [%] | SMILES | KSSET (Average) [1] | KSSET ([1]; λex 224 nm) | KSSET ([1]; λex 266 nm) | KSSET ([1]; λex 280 nm) | selectivity for tumors compared to normal tissues (tumors)
1 |  |  |  | C=C(NC(C)(C)C(=O)NC(Cc1ccc2ccccc2c1)C(=O)NC(C)(C)C(=O)NC(Cc1ccc(C(=O)c2ccccc2)cc1)C(=O)NC(C)(C)C(=O)NC(C)C(=O)O)C(C)NC(=O)[C@@H](C)N (single isomer, unassigned) [Compound 2A] | 3 × 10^7 S^−1 | 2.1 × 10^7 S^−1 | 3.7 × 10^7 S^−1 | 3.2 × 10^7 S^−1 | 
2 |  |  |  | C=C(NC(C)(C)C(=O)NC(Cc1ccc2ccccc2c1)C(=O)NC(C)(C)C(=O)NC(Cc1ccc(C(=O)c2ccccc2)cc1)C(=O)NC(C)(C)C(=O)NC(C)C(=O)O)C(C)NC(=O)[C@@H](C)N (single isomer, unassigned) [Compound 2B] | 3.9 × 10^7 S^−1 | 3.1 × 10^7 S^−1 | 3.9 × 10^7 S^−1 | 4.7 × 10^7 S^−1 | 
3 |  |  |  | CC1NC(=O)C(C)(C)NC(=O)C(Cc2ccc(C(=O)c3ccccc3)cc2)NC(=O)C(C)(C)NC(=O)C(C)NC(=O)C(C)(C)NC(=O)C(Cc2ccc3ccccc3c2)NC(=O)C(C)(C)NC1=O (centres unmarked) [Compound 1A] (cyclo([Aib][2Nal][Aib]A[Aib][Bpa][Aib]A); configuration not given here) | 3.67 × 10^7 S^−1 | 3.8 × 10^7 S^−1 | 3.6 × 10^7 S^−1 | 3.6 × 10^7 S^−1 | 
4 |  |  |  | CC(NC(=O)C(C)(C)NC(=O)C(Cc1ccc(C(=O)c2ccccc2)cc1)NC(=O)C(C)(C)NC(=O)C(C)NC(=O)C(C)(C)NC(=O)C(Cc1ccc2ccccc2c1)NC(=O)C(C)(C)N)C(=O)O (centres unmarked) [Compound 1B] (H-[Aib][2Nal][Aib]A[Aib][Bpa][Aib]A-OH; configuration not given here) | 1.87 × 10^8 S^−1 | 2.44 × 10^8 S^−1 | 1.8 × 10^8 S^−1 | 1.36 × 10^8 S^−1 | 
5 | approximately 2 weeks |  |  | Oc1cccc(-c2c3nc(c(-c4cccc(O)c4)c4ccc([nH]4)c(-c4cccc(O)c4)c4nc(c(-c5cccc(O)c5)c5ccc2[nH]5)CC4)C=C3)c1 [Foscan, Tetra (m-hydroxyphenyl) chlorin] |  |  |  |  | 
6 |  | 24 to 48 |  | CC(=O)[O-].CC(=O)[O-].CCc1c(CC)c2cc3nc(cnc4cc(OCCOCCOCCOC)c(OCCOCCOCCOC)cc4ncc4nc(cc1[n-]2)C(CCCO)=C4C)C(C)=C3CCCO.O.[Lu+3] [Lutetium texaphryin, Motexafin lutetium] |  |  |  |  | one of the greatest reported selectivities for tumors
7 |  |  | 17 | O=C1O[C@H]([C@@H](O)CO)C(O)=C1O [Vitamin C] |  |  |  |  | 
